Laboratory results as given in PubChem BioAssay AID248 (DTP/NCI, 2004).
Several values for one entry are separate records, joined by “and”; a condition that tells them apart may be missing. Equal entries are not always repeated. Inconclusive results and toxic doses are left out. Cut-off read from the data, not from the text of the source: active = T/C of 150% or more; inactive = T/C below 125%.

System: L1210 leukemia ip in BDF1 mice, survival T/C
Experiment: NCI In Vivo Anticancer Drug Screen. Data for tumor model L1210 Leukemia (intraperitoneal) in B6D2F1 (BDF1) mice
Conditions: endpoint: mean survival time, higher = longer survival
Procedure, shortened: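 Each compound was tested against a transplantable tumor grown in mice. The endpoint was survival, with treated animals benchmarked against vehicle controls as a simple ratio.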

[1] = dose: 20.0 mg/kg/injection, schedule: Q04DX003 (ip), vehicle: Klucel (hydroxypropylcellulose) (HPC)
[2] = dose: 40.0 mg/kg/injection, schedule: Q04DX003 (ip), vehicle: Klucel (hydroxypropylcellulose) (HPC)
[3] = dose: 100.0 mg/kg/injection, schedule: Q04DX003 (ip), vehicle: Klucel (hydroxypropylcellulose) (HPC)
[4] = dose: 100.0 mg/kg/injection, schedule: Q04DX002 (ip), vehicle: saline with Tween-80
[5] = dose: 200.0 mg/kg/injection, schedule: Q04DX002 (ip), vehicle: saline with Tween-80
[6] = dose: 400.0 mg/kg/injection, schedule: Q04DX002 (ip), vehicle: saline with Tween-80
[7] = dose: 200.0 mg/kg/injection, schedule: Q01DX001 (ip), vehicle: saline
[8] = dose: 100.0 mg/kg/injection, schedule: Q04DX003 (ip), vehicle: saline
[9] = dose: 200.0 mg/kg/injection, schedule: Q04DX003 (ip), vehicle: saline
[10] = dose: 400.0 mg/kg/injection, schedule: Q04DX003 (ip), vehicle: saline
[11] = dose: 100.0 mg/kg/injection, schedule: Q01DX009 (ip), vehicle: saline with Tween-80
[12] = dose: 200.0 mg/kg/injection, schedule: Q01DX009 (ip), vehicle: saline with Tween-80
[13] = dose: 75.0 mg/kg/injection, schedule: Q01DX001 (ip), vehicle: carboxymethylcellulose (CMC)
[14] = dose: 100.0 mg/kg/injection, schedule: Q01DX009 (ip), vehicle: Klucel (hydroxypropylcellulose) (HPC)
[15] = dose: 200.0 mg/kg/injection, schedule: Q01DX009 (ip), vehicle: Klucel (hydroxypropylcellulose) (HPC)
[16] = dose: 200.0 mg/kg/injection, schedule: Q04DX003 (ip), vehicle: Klucel (hydroxypropylcellulose) (HPC)
[17] = dose: 400.0 mg/kg/injection, schedule: Q01DX009 (ip), vehicle: Klucel (hydroxypropylcellulose) (HPC)
[18] = dose: 400.0 mg/kg/injection, schedule: Q04DX003 (ip), vehicle: Klucel (hydroxypropylcellulose) (HPC)
[19] = dose: 50.0 mg/kg/injection, schedule: Q01DX009 (ip), vehicle: saline with Tween-80
[20] = dose: 50.0 mg/kg/injection, schedule: Q04DX003 (ip), vehicle: saline with Tween-80
[21] = dose: 100.0 mg/kg/injection, schedule: Q04DX003 (ip), vehicle: saline with Tween-80

Measured: T/C

CC(OC(=O)CCN1CC1)C1CC1 (stereo not drawn)
inactive: dose: 2.5 mg/kg/injection, schedule: Q01DX009 (ip), vehicle: Klucel (hydroxypropylcellulose) (HPC) 103 % of control | dose: 5.0 mg/kg/injection, schedule: Q01DX009 (ip), vehicle: Klucel (hydroxypropylcellulose) (HPC) 102 % of control | dose: 10.0 mg/kg/injection, schedule: Q01DX009 (ip), vehicle: Klucel (hydroxypropylcellulose) (HPC) 100 % of control | dose: 20.0 mg/kg/injection, schedule: Q01DX009 (ip), vehicle: Klucel (hydroxypropylcellulose) (HPC) 101 % of control | [1] 103 % of control | [2] 93 % of control | dose: 80.0 mg/kg/injection, schedule: Q04DX003 (ip), vehicle: Klucel (hydroxypropylcellulose) (HPC) 101 % of control | [3] 87 % of control

CC12CCCCC1CC(=O)CC2 (stereo not drawn)
inactive: [4] 99 % of control | [5] 86 % of control | [6] 96 % of control

CCCCCCCCOC(=O)c1[nH]cnc1N
inactive: dose: 50.0 mg/kg/injection, schedule: Q01DX001 (ip), vehicle: saline 100 % of control | dose: 100.0 mg/kg/injection, schedule: Q01DX001 (ip), vehicle: saline 96 % of control | [7] 96 % of control

CCOP(=O)(OCC)OC(C)CC (stereo not drawn)
inactive: [4] 109 % of control | [5] 103 % of control | [6] 106 % of control

COc1cccc(NC(=S)NC(=O)c2ccccc2)c1
inactive: dose: 100.0 mg/kg/injection, schedule: Q04DX002 (ip), vehicle: Klucel (hydroxypropylcellulose) (HPC) 110 % of control | dose: 200.0 mg/kg/injection, schedule: Q04DX002 (ip), vehicle: Klucel (hydroxypropylcellulose) (HPC) 92 % of control | dose: 400.0 mg/kg/injection, schedule: Q04DX002 (ip), vehicle: Klucel (hydroxypropylcellulose) (HPC) 103 % of control

c1ccc2c3c(cc(C4CCCC4)c2c1)CCCC3
inactive: dose: 100.0 mg/kg/injection, schedule: Q01DX001 (ip), vehicle: carboxymethylcellulose (CMC) 88 % of control | dose: 200.0 mg/kg/injection, schedule: Q01DX001 (ip), vehicle: carboxymethylcellulose (CMC) 91 % of control

C/C(=N\N=C(/C)c1cccc(N)c1)c1cccc(N)c1
inactive: [7] 87 % of control | dose: 400.0 mg/kg/injection, schedule: Q01DX001 (ip), vehicle: saline 87 % of control

CC(C)N1c2c(nc(N)[nH]c2=O)NCC1CNc1ccc(C(=O)NC(CCC(=O)O)C(=O)O)cc1 (stereo not drawn)
inactive: dose: 100.0 mg/kg/injection, schedule: Q01DX009 (ip), vehicle: saline 102 % of control | [8] 104 % of control | dose: 200.0 mg/kg/injection, schedule: Q01DX009 (ip), vehicle: saline 102 % of control | [9] 98 % of control | dose: 400.0 mg/kg/injection, schedule: Q01DX009 (ip), vehicle: saline 102 % of control | [10] 98 % of control

CCOc1ccn(CC(=O)N2CCC3(CC2)SSC2(CCN(C(=O)Cn4ccc(OCC)nc4=O)CC2)S3)c(=O)n1
inactive: [8] 90 % of control | [9] 92 % of control | [10] 95 % of control

O=C(Nc1ccc(C2=NCCO2)cc1)c1ccc(C(=O)Nc2ccc(C3=NCCO3)cc2)cc1
inactive: dose: 15.0 mg/kg/injection, schedule: Q01DX Z (ip), vehicle: carboxymethylcellulose (CMC) 105 % of control | dose: 30.0 mg/kg/injection, schedule: Q01DX Z (ip), vehicle: carboxymethylcellulose (CMC) 96 % of control | dose: 60.0 mg/kg/injection, schedule: Q01DX Z (ip), vehicle: carboxymethylcellulose (CMC) 91 % of control | dose: 120.0 mg/kg/injection, schedule: Q01DX Z (ip), vehicle: carboxymethylcellulose (CMC) 96 % of control

NC(N)=NCCCC(N)C(=O)NCCCCCCNC(=O)C(N)CCCN=C(N)N (stereo not drawn)
inactive: dose: 10.0 mg/kg/injection, schedule: Q01DX Z (ip), vehicle: saline 97 % of control | dose: 30.0 mg/kg/injection, schedule: Q01DX Z (ip), vehicle: saline 108 % of control | dose: 100.0 mg/kg/injection, schedule: Q01DX Z (ip), vehicle: saline 90 % of control

Clc1ccc(Cl)c(OCC2=NCCN2)c1
inactive: [1] 102 % of control | [2] 101 % of control

CC(=O)Oc1cccc(C)c1
inactive: [11] 104 % of control | [12] 106 % of control

COc1cc2c(cc1NC(=O)C(F)(F)F)-c1ccc(NC(=O)C(F)(F)F)cc1C2
inactive: [13] 88 % of control | dose: 150.0 mg/kg/injection, schedule: Q01DX001 (ip), vehicle: carboxymethylcellulose (CMC) 98 % of control | dose: 300.0 mg/kg/injection, schedule: Q01DX001 (ip), vehicle: carboxymethylcellulose (CMC) 90 % of control

COc1ccc2c(O)coc2c1
inactive: [14] 100 % of control | [3] 104 % of control | [15] 101 % of control | [16] 102 % of control | [17] 96 % of control | [18] 93 % of control

O=[N+]([O-])c1ccc(N/N=C/c2ccccn2)cc1
inactive: [14] 87 % of control | [15] 95 % of control | [17] 97 % of control

O=C1OC(C(O)CO)C(=O)C1=O (stereo not drawn)
inactive: [19] 97 % of control | dose: 100.0 mg/kg/injection, schedule: Q01DX001 (ip), vehicle: water 102 % of control | [11] 97 % of control | dose: 100.0 mg/kg/injection, schedule: Q01DX009 (ip), vehicle: water 105 % of control | dose: 100.0 mg/kg/injection, schedule: Q04DX003 (ip), vehicle: water 104 % of control | dose: 200.0 mg/kg/injection, schedule: Q01DX001 (ip), vehicle: water 107 % of control | [12] 101 % of control | dose: 200.0 mg/kg/injection, schedule: Q01DX009 (ip), vehicle: water 106 % of control | dose: 200.0 mg/kg/injection, schedule: Q04DX003 (ip), vehicle: water 109 % of control | dose: 400.0 mg/kg/injection, schedule: Q01DX001 (ip), vehicle: water 107 % of control | dose: 400.0 mg/kg/injection, schedule: Q01DX009 (ip), vehicle: water 116 % of control | dose: 400.0 mg/kg/injection, schedule: Q04DX003 (ip), vehicle: water 115 % of control | dose: 800.0 mg/kg/injection, schedule: Q01DX001 (ip), vehicle: water 102 % of control | dose: 800.0 mg/kg/injection, schedule: Q01DX009 (ip), vehicle: water 111 % of control | dose: 800.0 mg/kg/injection, schedule: Q04DX003 (ip), vehicle: water 121 % of control

COC(=O)C(Br)C(Br)N1C(=O)c2ccccc2C1=O (stereo not drawn)
inactive: [14] 98 % of control | [3] 102 % of control | [15] 96 % of control | [16] 105 % of control | [17] 102 % of control | [18] 97 % of control

CCOC(=O)c1ccc(NC(=O)N(C)N=O)cc1
inactive: [13] 121 % of control

CSc1ncnc2[nH]ncc12
inactive: dose: 25.0 mg/kg/injection, schedule: Q01DX009 (ip), vehicle: saline with Tween-80 108 % of control | dose: 25.0 mg/kg/injection, schedule: Q04DX003 (ip), vehicle: saline with Tween-80 105 % of control | [19] 102 % of control | [20] 103 % of control | [21] 96 % of control and 106 % of control

COc1cc([N+](=O)[O-])ccc1NC(=O)Oc1ccc2ccccc2c1
inactive: [14] 98 % of control | [15] 96 % of control | [17] 100 % of control

CC12CCC3c4ccc(O)cc4CCC3C1CCC2=O (stereo not drawn)
inactive: dose: 100.0 mg/kg/injection, schedule: Q01DX001 (sc), vehicle: steriod suspending solution 92 % of control | dose: 200.0 mg/kg/injection, schedule: Q01DX001 (sc), vehicle: steriod suspending solution 92 % of control | dose: 400.0 mg/kg/injection, schedule: Q01DX001 (sc), vehicle: steriod suspending solution 86 % of control

O=C(O)c1cc2c3c(c1)CCCN3CCC2
inactive: [20] 100 % of control | [21] 100 % of control | dose: 200.0 mg/kg/injection, schedule: Q04DX003 (ip), vehicle: saline with Tween-80 102 % of control | dose: 400.0 mg/kg/injection, schedule: Q04DX003 (ip), vehicle: saline with Tween-80 91 % of control
